According to patent US20240139197A1, “INHIBITION OF KDM5A FOR PROMOTING ANTIGEN PRESENTATION, INCREASING CD8+ T CELL INFILTRATION AND BOOSTING ANTI-TUMOR IMMUNE RESPONSE” (The Wistar Institute of Anatomy and Biology, priority 2022, published 2024):

How the values were obtained:
[1] = system: HGSOC cell lines; assay: dose response by colony formation assay in HGSOC/EOC cell lines; assay type: cell-based, human; settings: panel of EOC cell lines, regardless of KDM5A expression status, dose response curve
Source text: FIG. 5A-FIG. 5G show KDM5A is overexpressed in HGSOC and its expression negatively correlates with infiltration of CD8+ T cells. (FIG. 5A) Correlation between KDM5A and CD8A expression in the TCGA HGSOC dataset. (FIG. 5B) Correlation between KDM5A and CD8A expression in a published laser capture and microdissected (LCM) HGSOC dataset. (FIG. 5C) Correlation between KDM5A and PRFI expression in the TCGA HGSOC dataset. (FIG. 5D) Representative images of KDM5A IHC staining of HGSOC in a tumor microarray. (FIG. 5E) Relative expression of KDM5A in LCM of HGSOC and normal human ovarian surface epithelial cells (HOSE) or fallopian tube epithelial cells (FTE). (FIG. 5F) Expression of KDM5A and a loading control β-actin in the indicated FTE cells and HGSOC cell lines determined by immunoblot. (FIG. 5G) Dose response curves to KDM5A inhibitor CPI-455 determined by colony formation assay in the indicated HGSOC cell lines. Data represent mean±SEM; P values were calculated by using a two-tailed Student t test except in FIG. 5A and FIG. 5B by using Pearson r analysis.
Insulin/Transferrin/Selenium (Invitrogen, Cat #51300), […] Hydrocortisone (Sigma, Cat #H0135), 10 ng/ml Murine epidermal growth factor (Sigma, Cat #E4127) and 1% penicillin/streptomycin at 37° C.with 5% CO2. […]

[2] = system: H2-K1 gene promoter in ID8 cells; assay: ChIP at H2-K1 gene promoter; assay type: cell-based, mouse; settings: ID8, IFNγ, anti-H3K4me3 ChIP
Source text: FIG. 4A-FIG. 4M show KDM5A regulates antigen processing and presentation pathway. (FIG. 4A) Experimental strategy used to identify Kdm5a direct target genes. […] (FIG. 4B) CUT&RUN tracks of the newly identified Kdm5a target gene H2-K1 for Kdm5a and H3K4me3 in ID8 cells. (FIG. 4C) Expression of H2-K1 in doxycycline-inducible shKdm5a ID8 cells, Kdm5a inhibitor CPI-455, or Kdm5a knockout cells with or without IFNγ stimulation determined by RT-qPCR. (FIG. 4D) Cell surface expression of H2-K1 in control and Kdm5a knockout ID8 cells with or without IFNy stimulation was determined by FACS analysis. (FIG. 4E) Quantification of FIG. 4D. (FIG. 4F) Cell surface expression of H2-K1 in control and doxycyclineinducible Kdm5a-knockdown ID8 cells with or without IFNγ stimulation was determined by FACS analysis. (FIG. 4G) Quantification of FIG. 4F. (FIG. 4H) Cell surface expression of H2-K1 in D8 cells treated with vehicle or CPI-455 with or without IFNγ stimulation was determined by FACS analysis. (FIG. 4I) Quantification of FIG. 4H; An isotype matched IgG was used as a negative control for all the FACS analysis. […] Data represent mean±SEM of three biological repeats; P-value was calculated by using a two-tailed Student t test except in FIG. 4L by using Pearson r analysis test and FIG. 4M by using Fisher's exact test. […]

## CPI-455
[1]
  cell viability in vitro: did not affect cell viability
[2]
  association of H3K4me3 with H2-K1 gene promoter: increased the association of H3K4me3
